In ChEMBL document CHEMBL1821607, “N-Arylalkyl-2-azaadamantanes as cage-expanded polycarbocyclic sigma (σ) receptor ligands” (Bioorg Med Chem Lett, 2011):

Legend:
[1] = Displacement of [3H]DTG from sigma 2 receptor in rat liver homogenates in presence of sigma-1 receptor blocker (+)-pentazocine after 120 mins by liquid scintillation counting; type: tissue-based
[2] = biological target: T1, Alpha-1A adrenergic receptor (Homo sapiens) (UniProt P35348); experiment: Inhibition of alpha-1A adrenergic receptor at 10 uM by NIMH PDSP
T1 sequence (whole entry): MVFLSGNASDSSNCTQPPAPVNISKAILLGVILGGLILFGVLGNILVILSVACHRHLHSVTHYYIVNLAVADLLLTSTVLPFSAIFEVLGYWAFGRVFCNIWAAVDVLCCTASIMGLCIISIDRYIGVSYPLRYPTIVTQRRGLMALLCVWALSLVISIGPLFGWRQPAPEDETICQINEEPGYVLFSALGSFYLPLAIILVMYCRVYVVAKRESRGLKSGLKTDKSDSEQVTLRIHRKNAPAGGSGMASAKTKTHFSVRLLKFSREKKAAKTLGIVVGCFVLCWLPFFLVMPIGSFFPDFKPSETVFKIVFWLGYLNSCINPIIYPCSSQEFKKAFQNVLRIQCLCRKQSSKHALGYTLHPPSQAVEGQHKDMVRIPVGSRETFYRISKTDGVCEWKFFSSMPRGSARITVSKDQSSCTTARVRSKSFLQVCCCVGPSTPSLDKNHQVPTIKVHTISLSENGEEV

[3] = biological target: T2, Alpha-2B adrenergic receptor (Homo sapiens) (UniProt P18089); experiment: Inhibition of alpha-2B adrenergic receptor at 10 uM by NIMH PDSP
T2 sequence (whole entry): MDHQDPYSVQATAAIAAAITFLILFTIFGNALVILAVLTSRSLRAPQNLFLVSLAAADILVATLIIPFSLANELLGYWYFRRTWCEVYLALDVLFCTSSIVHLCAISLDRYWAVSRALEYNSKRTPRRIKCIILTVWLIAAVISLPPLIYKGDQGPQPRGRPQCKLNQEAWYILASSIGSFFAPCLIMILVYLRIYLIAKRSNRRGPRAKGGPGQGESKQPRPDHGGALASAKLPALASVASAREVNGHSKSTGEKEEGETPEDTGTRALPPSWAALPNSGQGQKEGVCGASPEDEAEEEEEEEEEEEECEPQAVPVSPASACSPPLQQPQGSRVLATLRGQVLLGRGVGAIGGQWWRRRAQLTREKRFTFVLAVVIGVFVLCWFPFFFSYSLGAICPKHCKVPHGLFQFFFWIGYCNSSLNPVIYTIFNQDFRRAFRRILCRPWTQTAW

[4] = biological target: Beta-2 adrenergic receptor (Homo sapiens) (UniProt P07550); experiment: Inhibition of beta-2 adrenergic receptor at 10 uM by NIMH PDSP
Beta-2 adrenergic receptor (Homo sapiens), sequence (P07550 whole entry, looked up): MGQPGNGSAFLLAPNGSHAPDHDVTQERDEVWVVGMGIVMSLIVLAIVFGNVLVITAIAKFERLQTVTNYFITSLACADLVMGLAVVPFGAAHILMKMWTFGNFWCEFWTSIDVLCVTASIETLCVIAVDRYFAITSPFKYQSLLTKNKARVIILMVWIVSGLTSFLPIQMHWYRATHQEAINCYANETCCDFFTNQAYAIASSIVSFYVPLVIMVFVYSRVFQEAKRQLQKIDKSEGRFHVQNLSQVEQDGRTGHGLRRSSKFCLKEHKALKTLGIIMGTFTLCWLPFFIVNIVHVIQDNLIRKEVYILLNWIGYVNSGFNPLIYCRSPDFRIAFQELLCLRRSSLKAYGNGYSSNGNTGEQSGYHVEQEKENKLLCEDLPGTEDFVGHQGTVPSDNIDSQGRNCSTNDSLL

[5] = biological target: D(1A) dopamine receptor (Homo sapiens, UniProt P21728); experiment: Inhibition of D1 dopamine receptor at 10 uM by NIMH PDSP
D(1A) dopamine receptor, sequence (P21728 whole entry): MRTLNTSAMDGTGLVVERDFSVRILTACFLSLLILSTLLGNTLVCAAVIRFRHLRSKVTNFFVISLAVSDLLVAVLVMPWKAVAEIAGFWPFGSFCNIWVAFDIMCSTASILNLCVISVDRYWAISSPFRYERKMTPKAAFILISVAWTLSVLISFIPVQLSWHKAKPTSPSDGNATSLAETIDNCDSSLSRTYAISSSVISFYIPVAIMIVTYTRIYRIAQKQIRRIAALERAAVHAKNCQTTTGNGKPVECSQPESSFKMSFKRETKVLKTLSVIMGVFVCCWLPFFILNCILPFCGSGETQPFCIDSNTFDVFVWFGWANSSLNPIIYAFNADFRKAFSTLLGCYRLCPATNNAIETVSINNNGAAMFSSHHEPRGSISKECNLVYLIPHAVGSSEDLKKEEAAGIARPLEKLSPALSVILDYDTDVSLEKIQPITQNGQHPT

[6] = biological target: D(1B) dopamine receptor (Homo sapiens) (UniProt P21918); experiment: Inhibition of D5 dopamine receptor at 10 uM by NIMH PDSP
D(1B) dopamine receptor (Homo sapiens), sequence (P21918 whole entry): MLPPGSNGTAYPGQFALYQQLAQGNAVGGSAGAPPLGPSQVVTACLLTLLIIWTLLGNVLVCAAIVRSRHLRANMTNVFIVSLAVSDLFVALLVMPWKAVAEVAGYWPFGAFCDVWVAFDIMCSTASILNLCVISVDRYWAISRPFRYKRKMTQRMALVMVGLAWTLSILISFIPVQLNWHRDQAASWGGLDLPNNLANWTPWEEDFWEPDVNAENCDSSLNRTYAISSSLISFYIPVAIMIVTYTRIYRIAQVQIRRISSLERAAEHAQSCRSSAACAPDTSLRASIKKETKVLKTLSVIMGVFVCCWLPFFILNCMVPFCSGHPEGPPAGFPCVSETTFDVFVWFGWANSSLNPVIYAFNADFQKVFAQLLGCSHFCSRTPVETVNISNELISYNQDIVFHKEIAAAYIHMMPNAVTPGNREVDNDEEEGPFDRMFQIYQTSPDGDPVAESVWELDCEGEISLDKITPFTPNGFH

[7] = Inhibition of GABAA receptor at 10 uM by NIMH PDSP
[8] = biological target: Histamine H1 receptor (Homo sapiens, UniProt P35367); experiment: Inhibition of H1 receptor by NIMH PDSP
Histamine H1 receptor, sequence (P35367 whole entry): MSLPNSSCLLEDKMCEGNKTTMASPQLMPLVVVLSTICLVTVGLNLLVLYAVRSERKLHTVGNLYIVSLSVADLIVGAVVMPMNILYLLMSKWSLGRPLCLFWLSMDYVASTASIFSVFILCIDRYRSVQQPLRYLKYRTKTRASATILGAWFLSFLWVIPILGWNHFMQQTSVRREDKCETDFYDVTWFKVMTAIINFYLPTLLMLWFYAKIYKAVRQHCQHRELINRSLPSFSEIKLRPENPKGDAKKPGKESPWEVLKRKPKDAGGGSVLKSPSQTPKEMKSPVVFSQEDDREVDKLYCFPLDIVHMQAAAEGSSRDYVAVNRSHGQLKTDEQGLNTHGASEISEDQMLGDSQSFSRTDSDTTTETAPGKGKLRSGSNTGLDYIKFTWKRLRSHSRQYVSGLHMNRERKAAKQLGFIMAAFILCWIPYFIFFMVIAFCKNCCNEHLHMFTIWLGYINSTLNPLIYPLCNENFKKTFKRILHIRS

[9] = biological target: Histamine H4 receptor (Homo sapiens) (UniProt Q9H3N8); experiment: Inhibition of H4 receptor at 10 uM by NIMH PDSP
Histamine H4 receptor (Homo sapiens), sequence (Q9H3N8 whole entry): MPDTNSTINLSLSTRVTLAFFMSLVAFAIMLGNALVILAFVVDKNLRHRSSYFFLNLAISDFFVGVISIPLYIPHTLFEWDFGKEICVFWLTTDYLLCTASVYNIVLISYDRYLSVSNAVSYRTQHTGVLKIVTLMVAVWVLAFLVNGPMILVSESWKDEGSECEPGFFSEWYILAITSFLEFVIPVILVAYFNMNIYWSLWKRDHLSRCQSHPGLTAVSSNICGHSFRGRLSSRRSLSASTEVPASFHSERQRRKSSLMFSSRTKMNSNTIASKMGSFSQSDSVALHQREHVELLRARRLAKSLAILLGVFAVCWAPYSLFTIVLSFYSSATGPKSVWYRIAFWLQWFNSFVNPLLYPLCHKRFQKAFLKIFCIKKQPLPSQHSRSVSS

[10] = biological target: 5-hydroxytryptamine receptor 1B (Homo sapiens) (UniProt P28222); experiment: Inhibition of 5-HT1B receptor at 10 uM by NIMH PDSP
5-hydroxytryptamine receptor 1B (Homo sapiens), sequence (P28222 whole entry): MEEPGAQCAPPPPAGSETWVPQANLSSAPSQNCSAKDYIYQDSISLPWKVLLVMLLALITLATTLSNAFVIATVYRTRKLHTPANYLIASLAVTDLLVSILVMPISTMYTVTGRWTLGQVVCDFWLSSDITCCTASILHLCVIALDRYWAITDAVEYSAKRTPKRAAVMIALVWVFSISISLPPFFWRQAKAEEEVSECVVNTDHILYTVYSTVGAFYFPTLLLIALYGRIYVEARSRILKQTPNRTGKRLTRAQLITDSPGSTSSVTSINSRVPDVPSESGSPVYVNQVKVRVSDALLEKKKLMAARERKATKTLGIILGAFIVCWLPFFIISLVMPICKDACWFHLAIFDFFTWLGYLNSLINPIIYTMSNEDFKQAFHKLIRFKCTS

[11] = biological target: 5-hydroxytryptamine receptor 1D (Homo sapiens) (UniProt P28221); experiment: Inhibition of 5-HT1D receptor at 10 uM by NIMH PDSP
5-hydroxytryptamine receptor 1D (Homo sapiens), sequence (P28221 whole entry): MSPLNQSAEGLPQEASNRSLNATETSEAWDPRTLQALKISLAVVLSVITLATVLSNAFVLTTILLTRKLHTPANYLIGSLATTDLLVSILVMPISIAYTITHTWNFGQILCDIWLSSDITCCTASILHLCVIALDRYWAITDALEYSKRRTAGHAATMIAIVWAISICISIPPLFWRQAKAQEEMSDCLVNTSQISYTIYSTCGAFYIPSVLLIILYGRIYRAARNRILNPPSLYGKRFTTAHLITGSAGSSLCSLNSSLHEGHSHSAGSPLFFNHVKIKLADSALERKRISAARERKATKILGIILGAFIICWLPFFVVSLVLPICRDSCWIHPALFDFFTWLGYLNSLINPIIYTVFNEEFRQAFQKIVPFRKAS

[12] = biological target: 5-hydroxytryptamine receptor 2A (Homo sapiens) (UniProt P28223); experiment: Inhibition of 5-HT2A receptor at 10 uM by NIMH PDSP
[13] = biological target: 5-hydroxytryptamine receptor 2B (Homo sapiens) (UniProt P41595); experiment: Inhibition of 5-HT2B receptor at 10 uM by NIMH PDSP
5-hydroxytryptamine receptor 2B (Homo sapiens), sequence (P41595 whole entry): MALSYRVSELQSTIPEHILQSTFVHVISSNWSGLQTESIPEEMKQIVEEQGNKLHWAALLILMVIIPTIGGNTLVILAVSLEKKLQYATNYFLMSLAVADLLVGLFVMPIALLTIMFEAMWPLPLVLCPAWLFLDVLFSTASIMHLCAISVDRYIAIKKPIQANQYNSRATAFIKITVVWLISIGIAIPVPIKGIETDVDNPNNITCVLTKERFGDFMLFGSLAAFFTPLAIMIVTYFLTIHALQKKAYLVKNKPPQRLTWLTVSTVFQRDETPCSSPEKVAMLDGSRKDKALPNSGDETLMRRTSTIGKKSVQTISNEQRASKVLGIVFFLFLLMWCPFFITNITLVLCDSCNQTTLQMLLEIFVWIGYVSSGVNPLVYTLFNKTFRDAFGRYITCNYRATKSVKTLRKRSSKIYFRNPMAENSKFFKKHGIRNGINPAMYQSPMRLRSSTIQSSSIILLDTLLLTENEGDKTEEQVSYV

[14] = biological target: T3, 5-hydroxytryptamine receptor 3A (Homo sapiens) (UniProt P46098); experiment: Inhibition of 5-HT3 receptor at 10 uM by NIMH PDSP
T3 sequence (whole entry): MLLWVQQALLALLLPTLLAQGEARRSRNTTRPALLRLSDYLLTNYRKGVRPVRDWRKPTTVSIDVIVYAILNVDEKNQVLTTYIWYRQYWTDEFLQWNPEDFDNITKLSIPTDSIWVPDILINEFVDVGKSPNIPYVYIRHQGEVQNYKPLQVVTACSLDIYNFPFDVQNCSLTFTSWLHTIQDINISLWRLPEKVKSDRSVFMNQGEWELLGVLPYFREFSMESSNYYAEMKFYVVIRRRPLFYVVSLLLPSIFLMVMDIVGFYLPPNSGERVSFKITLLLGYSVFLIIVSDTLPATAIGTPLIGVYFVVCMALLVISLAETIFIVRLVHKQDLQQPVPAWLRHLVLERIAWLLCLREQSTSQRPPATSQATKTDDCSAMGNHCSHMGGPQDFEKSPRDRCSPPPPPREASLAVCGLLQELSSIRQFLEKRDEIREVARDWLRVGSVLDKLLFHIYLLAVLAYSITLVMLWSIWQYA

[15] = biological target: 5-hydroxytryptamine receptor 6 (Homo sapiens) (UniProt P50406); experiment: Inhibition of 5-HT6 receptor at 10 uM by NIMH PDSP
5-hydroxytryptamine receptor 6 (Homo sapiens), sequence (P50406 whole entry): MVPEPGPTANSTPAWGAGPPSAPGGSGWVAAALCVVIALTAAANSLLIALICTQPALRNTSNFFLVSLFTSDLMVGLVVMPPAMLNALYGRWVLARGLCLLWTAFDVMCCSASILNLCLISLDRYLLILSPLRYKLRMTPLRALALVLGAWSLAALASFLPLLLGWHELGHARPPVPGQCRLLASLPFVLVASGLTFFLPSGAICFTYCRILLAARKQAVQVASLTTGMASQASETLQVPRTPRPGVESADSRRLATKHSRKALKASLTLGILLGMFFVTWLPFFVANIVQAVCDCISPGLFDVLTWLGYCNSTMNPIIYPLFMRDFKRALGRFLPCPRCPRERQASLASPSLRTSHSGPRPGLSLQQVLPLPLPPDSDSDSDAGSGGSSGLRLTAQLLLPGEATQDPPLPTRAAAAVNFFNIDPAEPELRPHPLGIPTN

[16] = biological target: T4, Muscarinic acetylcholine receptor M1 (Homo sapiens) (UniProt P11229); experiment: Inhibition of M1 muscarinic receptor at 10 uM by NIMH PDSP
T4 sequence (whole entry): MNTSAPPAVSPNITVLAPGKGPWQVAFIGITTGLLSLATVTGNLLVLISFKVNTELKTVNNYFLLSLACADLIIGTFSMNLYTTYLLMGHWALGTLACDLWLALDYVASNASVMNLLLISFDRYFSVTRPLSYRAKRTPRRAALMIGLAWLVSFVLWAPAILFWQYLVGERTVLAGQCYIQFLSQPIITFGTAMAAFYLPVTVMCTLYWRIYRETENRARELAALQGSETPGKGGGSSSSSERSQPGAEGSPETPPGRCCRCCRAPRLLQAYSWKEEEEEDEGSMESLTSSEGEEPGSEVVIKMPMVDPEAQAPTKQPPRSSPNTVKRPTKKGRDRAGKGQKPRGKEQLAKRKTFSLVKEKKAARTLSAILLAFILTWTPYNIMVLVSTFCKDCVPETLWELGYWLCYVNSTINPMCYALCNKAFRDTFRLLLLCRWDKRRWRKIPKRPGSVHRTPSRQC

[17] = biological target: Delta-type opioid receptor (Homo sapiens) (UniProt P41143); experiment: Inhibition of delta opioid receptor at 10 uM by NIMH PDSP
Delta-type opioid receptor (Homo sapiens), sequence (P41143 whole entry): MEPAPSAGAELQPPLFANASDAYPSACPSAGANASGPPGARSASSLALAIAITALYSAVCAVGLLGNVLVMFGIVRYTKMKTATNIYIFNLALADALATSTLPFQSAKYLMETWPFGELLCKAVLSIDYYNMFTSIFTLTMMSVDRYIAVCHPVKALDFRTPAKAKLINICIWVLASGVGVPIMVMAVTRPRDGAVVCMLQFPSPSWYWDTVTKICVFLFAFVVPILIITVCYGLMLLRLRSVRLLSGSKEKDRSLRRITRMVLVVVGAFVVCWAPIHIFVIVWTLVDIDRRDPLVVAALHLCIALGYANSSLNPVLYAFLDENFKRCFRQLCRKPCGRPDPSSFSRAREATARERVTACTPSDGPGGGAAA

[18] = biological target: Mu-type opioid receptor (Homo sapiens) (UniProt P35372); experiment: Inhibition of mu opioid receptor at 10 uM by NIMH PDSP
Mu-type opioid receptor (Homo sapiens), sequence (P35372 whole entry): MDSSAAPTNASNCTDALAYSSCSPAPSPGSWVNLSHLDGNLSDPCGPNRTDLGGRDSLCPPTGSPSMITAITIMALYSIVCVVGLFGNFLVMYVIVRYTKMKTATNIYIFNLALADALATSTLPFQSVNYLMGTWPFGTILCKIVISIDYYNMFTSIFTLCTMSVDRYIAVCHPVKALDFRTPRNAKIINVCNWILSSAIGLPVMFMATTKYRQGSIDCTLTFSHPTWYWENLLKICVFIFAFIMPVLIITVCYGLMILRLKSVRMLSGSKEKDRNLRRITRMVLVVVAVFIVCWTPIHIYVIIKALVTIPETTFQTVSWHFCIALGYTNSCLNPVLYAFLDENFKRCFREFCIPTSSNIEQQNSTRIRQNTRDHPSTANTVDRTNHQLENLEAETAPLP

Q: What does the source list for `c1ccc(CN2C3CC4CC(C3)CC2C4)cc1`?
A: Ki [1]: 95 nM; inhibition [2]: < 50%; inhibition [3]: < 50%; inhibition [4]: < 50%; inhibition [5]: < 50%; inhibition [6]: < 50%; inhibition [7]: < 50%; Ki [8]: < 10000 nM; inhibition [9]: < 50%; inhibition [10]: < 50%; inhibition [11]: < 50%; inhibition [12]: < 50%; inhibition [13]: < 50%; inhibition [14]: < 50%; inhibition [15]: < 50%; inhibition [16]: < 50%; inhibition [17]: < 50%; inhibition [18]: < 50%

Q: For `OC12CC3CC(CC(C3)N1Cc1cccc(F)c1)C2` (racemic), which Ki [1] is on record?
A: The Ki was 705 nM.

Q: What about the inhibition [2] of the same compound?
A: Its inhibition is under 50%.

Q: What about the inhibition [3] of the same compound?
A: The inhibition was under 50%.

Q: And the inhibition [4]?
A: Its inhibition is under 50%.

Q: What about the inhibition [5] of the same compound?
A: The inhibition was under 50%.

Q: And the inhibition [6]?
A: The inhibition was under 50%.

Q: What about the inhibition [7] of the same compound?
A: Its inhibition is under 50%.

Q: What about the Ki [8] of the same compound?
A: Its Ki is under 10000 nM.

Q: And the inhibition [9]?
A: Its inhibition is under 50%.

Q: What about the inhibition [10] of the same compound?
A: Its inhibition is under 50%.

Q: What about the inhibition [11] of the same compound?
A: Its inhibition is under 50%.

Q: And the inhibition [12]?
A: The inhibition was under 50%.

Q: And the inhibition [13]?
A: Its inhibition is under 50%.

Q: And the inhibition [14]?
A: The inhibition was under 50%.

Q: And the inhibition [15]?
A: Its inhibition is under 50%.

Q: What about the inhibition [16] of the same compound?
A: The inhibition was under 50%.

Q: What about the inhibition [17] of the same compound?
A: The inhibition was under 50%.

Q: And the inhibition [18]?
A: Its inhibition is under 50%.

Q: For `OC12CC3CC(CC(C3)N1Cc1ccccc1)C2` (racemic), which Ki [1] is on record?
A: The Ki was 1020 nM.

Q: And the inhibition [2]?
A: The inhibition was under 50%.

Q: And the inhibition [4]?
A: The inhibition was under 50%.

Q: What about the inhibition [5] of the same compound?
A: The inhibition was under 50%.

Q: What about the inhibition [6] of the same compound?
A: Its inhibition is under 50%.

Q: And the inhibition [7]?
A: Its inhibition is under 50%.

Q: What about the Ki [8] of the same compound?
A: Its Ki is under 10000 nM.

Q: And the inhibition [9]?
A: Its inhibition is under 50%.

Q: What about the inhibition [10] of the same compound?
A: Its inhibition is under 50%.

Q: What about the inhibition [11] of the same compound?
A: The inhibition was under 50%.

Q: What about the inhibition [12] of the same compound?
A: The inhibition was under 50%.

Q: And the inhibition [13]?
A: The inhibition was under 50%.

Q: And the inhibition [14]?
A: Its inhibition is under 50%.

Q: What about the inhibition [15] of the same compound?
A: The inhibition was under 50%.

Q: What about the inhibition [16] of the same compound?
A: Its inhibition is under 50%.

Q: What about the inhibition [17] of the same compound?
A: Its inhibition is under 50%.

Q: What about the inhibition [18] of the same compound?
A: The inhibition was under 50%.

Q: With `Fc1cccc(CN2C3CC4CC(C3)CC2C4)c1` as the compound, how does the Ki [1] read?
A: The Ki was 132 nM.

Q: What about the inhibition [3] of the same compound?
A: The inhibition was under 50%.

Q: What about the inhibition [4] of the same compound?
A: Its inhibition is under 50%.

Q: What about the inhibition [6] of the same compound?
A: The inhibition was under 50%.

Q: What about the inhibition [7] of the same compound?
A: Its inhibition is under 50%.

Q: What about the Ki [8] of the same compound?
A: Its Ki is under 10000 nM.

Q: And the inhibition [9]?
A: Its inhibition is under 50%.

Q: What about the inhibition [10] of the same compound?
A: The inhibition was under 50%.

Q: What about the inhibition [11] of the same compound?
A: The inhibition was under 50%.

Q: What about the inhibition [12] of the same compound?
A: Its inhibition is under 50%.

Q: What about the inhibition [13] of the same compound?
A: The inhibition was under 50%.

Q: And the inhibition [14]?
A: The inhibition was under 50%.

Q: What about the inhibition [15] of the same compound?
A: Its inhibition is under 50%.

Q: What about the inhibition [16] of the same compound?
A: The inhibition was under 50%.

Q: And the inhibition [17]?
A: Its inhibition is under 50%.

Q: What about the inhibition [18] of the same compound?
A: The inhibition was under 50%.
